In patent publication US7125897B1, “Combined therapies for atherosclerosis treatment” (Vasogen Ireland Limited, priority 1999, dated 2006):

What was measured:
Format in all cases: in vivo, human
[1] = Ankle/brachial artery pressure ratio (ABPI) in patient with intermittent claudication; conditions: left leg; for ankle/brachial artery pressure ratio (ABPI): margin of error 0.1
Method: (§1) The stressed blood treatment used in the study involves the collection of 10 ml of a patient's venous blood into 2-ml of sodium citrate 3.13% as anticoagulant. The blood sample is transferred to a sterile, disposable low-density polyethylene vessel (model #V7002) for ex vivo treatment and is then exposed to the following three stimuli: • 1) An elevated temperature of 42.5° C.±1.0° C. at steady state controlled and monitored with a thermocouple; • 2) a gas mixture of medical oxygen containing 14.5±1.0 ug/ml of ozone, at a flow rate of 240±24 ml/min for 3 minutes; • 3) Ultra-violet light at a wavelength of 253.7 nm, and a total energy of 2.0 joules/cm^2.
(§2) The ex vivo treatment of the patient's blood sample is performed within a Blood Treatment Unit (model #V7001), generally described in U.S. Pat. No. 4,968,483 Mueller. The Unit regulates and monitors these physicochemical agents. The temperature of the blood is raised to 42.5° C., a process that takes up to 8 minutes depending upon the starting temperature of the blood sample. Before this temperature is reached the UV lights turn on, so that they reach maximum output by the time that the gas flow is initiated, which occurs when the temperature of the blood reaches 42.5° C. The total time of exposure to UV light is about 9 minutes. The gas mixture is bubbled through the blood sample at a flow rate of 240±24 ml/min for a period of 3 minutes while the temperature of the blood is maintained and UV irradiation continues. At the end of the treatment with the three stimuli (stressors), the blood is allowed to settle for 7 minutes. The device then signals that the treatment has been completed successfully. The entire process takes about 20 minutes.
A person with intermittent claudication (a cramping pain caused by arterial obstruction and indicative of the presence of a relatively advanced stage of atherosclerosis) in their left leg, was administered fluvastatin 20 mg. daily for hypercholesterolemia. Their initial ankle/brachial artery pressure ratio (ABPI) in the left leg was 0.60, normal values being greater than 0.9. […]

[2] = Claudication distance in patient with peripheral arterial occlusive disease; conditions: regular daily lovastatin plus 10 i.m. treatments of 10 ml autologous stressed blood over 14 weeks
Method: (§3) In a separate investigation, a patient suffering from peripheral arterial occlusive disease (a consequence of atherosclerosis) and receiving a regular, normal daily dose of lovastatin received 10 treatments of autologous stressed blood prepared as described above (10 ml aliquots, administered intramuscularly) over a 14-week period. As a result, their posterior tibial/brachial pressure index increased from 0.69 to 0.85, a very significant change.

[3] = Posterior tibial/brachial and dorsalis/brachial pressure index in patient with peripheral arterial occlusive disease
Method: as §1, §2, §3

[4] = regular daily lovastatin plus 10 i.m. treatments of 10 ml autologous stressed blood over 14 weeks
[5] = regular daily lovastatin, before stressed blood treatments

| SMILES | ankle/brachial artery pressure ratio (ABPI) ([1]; fluvastatin 20 mg daily plus 9 i.m. treatments with 10 ml stressed autologous blood over 3 weeks) | ankle/brachial artery pressure ratio (ABPI) ([1]; fluvastatin 20 mg daily plus stressed blood, 2 months after the end of treatment schedule) | initial ankle/brachial artery pressure ratio (ABPI) ([1]; fluvastatin 20 mg daily, before stressed blood treatments, normal values greater than 0.9) | claudication distance (walking distance before experiencing cramping pain in the legs) [2] | dorsalis (foot artery)/brachial pressure index [3, 4] | posterior tibial/brachial pressure index [3, 4] | dorsalis (foot artery)/brachial pressure index [3, 5] | posterior tibial/brachial pressure index [3, 5] |
| --- | --- | --- | --- | --- | --- | --- | --- | --- |
| CC(C)n1c(/C=C/C(O)CC(O)CC(=O)O)c(-c2ccc(F)cc2)c2ccccc21 (centres unmarked) [fluvastatin] | 0.66 | 0.75 | 0.60 | – | – | – | – | – |
| CC[C@H](C)C(=O)O[C@H]1C[C@@H](C)C=C2C=C[C@H](C)[C@H](CC[C@@H]3C[C@@H](O)CC(=O)O3)[C@H]21 [lovastatin] | – | – | – | improved | 0.85 | 0.85 | 0.77 | 0.69 |
